Data from patent US20070286898A1, “Intracellular Drug Delivery Improving Liposome” (ASTELLAS PHARMA INC., priority 2004, published 2007).

Test system: Ehrlich's ascites carcinoma cell
Test: Cell-killing effect upon Ehrlich's ascites carcinoma cell using WST
Type: cell-based
Conditions: 1×10^6 cells, read-out: IC50 (doxorubicin concentration by which 50% of cell-killing effect is obtained)
Method: The preparations prepared in Examples 1 and 2 and Comparative Examples 1, 2 and 3 were adjusted to various concentrations, and the resulting liquids were added to Ehrlich's ascites carcinoma cell (1×10^6 cells) to examine their cell-killing effects using WST.
Based on the results of plotting a relationship between the doxorubicin concentration in each preparation and its cell-killing effect, the doxorubicin concentration by which 50% of cell-killing effect is obtained was calculated (Table 1). By this, it was shown that the liposome preparations of the present invention show significant pharmacological effect in comparison with Comparative Examples.

With `COc1cccc2c1C(=O)c1c(O)c3c(c(O)c1C2=O)C[C@@](O)(C(=O)CO)C[C@@H]3O[C@H]1C[C@H](N)[C@H](O)[C@H](C)O1` [Comparative Example 3, doxorubicin] the IC50 was 3.45 µM.
